Assay results published in patent EP4813403A1, “USE OF GLP-1R/GIPR DOUBLE-TARGET AGONIST IN PREPARING ANIMAL DRUG” (Hangzhou Zhongmeihuadong Pharmaceutical Co., Ltd., priority 2023, dated 2025).

How the values were obtained:
human GIP Receptor = target: T1, human GIP Receptor (Homo sapiens, UniProt P48546); assay: In vitro binding activity to human GIP receptor ([125I]GIP displacement, crude cell membranes); details: ratio of the Ki value of the endogenous ligand to the Ki value of the test compound; larger ratio = stronger binding
T1 construct: expressed in transfected cells
T1 sequence (P48546 22-466): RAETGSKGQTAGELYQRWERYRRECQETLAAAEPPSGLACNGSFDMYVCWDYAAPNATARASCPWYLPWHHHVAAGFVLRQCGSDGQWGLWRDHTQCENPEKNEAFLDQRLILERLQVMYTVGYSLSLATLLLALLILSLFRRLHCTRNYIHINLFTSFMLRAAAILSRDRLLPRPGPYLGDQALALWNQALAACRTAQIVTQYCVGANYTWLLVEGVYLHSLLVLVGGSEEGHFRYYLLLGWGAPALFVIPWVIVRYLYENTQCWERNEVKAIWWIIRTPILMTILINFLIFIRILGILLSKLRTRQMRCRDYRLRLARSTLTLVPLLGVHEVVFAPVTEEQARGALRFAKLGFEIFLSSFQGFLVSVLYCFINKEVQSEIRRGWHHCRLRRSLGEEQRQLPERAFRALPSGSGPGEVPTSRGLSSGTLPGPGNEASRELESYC

[1] = Pharmacokinetics in C57 mice; details: C57, mouse, in vivo
Method: After subcutaneous or intravenous administration to C57 mice, plasma was collected and the drug concentration in plasma was determined to illustrate the in vivo pharmacokinetic properties of the compound according to the present invention. […] 20.0 µL of thawed plasma sample was taken. 20 µL of 50% aqueous methanol solution (containing 100 ng mL^-1 Tolbutamide) and 60 µL of acetonitrile were added sequentially to precipitate protein. The mixture was vortexed for 5 minutes, and centrifuged at 4815 rpm for 8 minutes. 50.0 µL of the supernatant was taken, into which 50.0 µL of 0.5% aqueous formic acid solution was added. The mixture was vortexed for 5 minutes. 50 µL of the mixture solution was sampled and injected into the LC-MS/MS to determine the drug concentration in plasma. Based on the drug concentration in plasma of the compounds in C57 mice, the pharmacokinetic parameters were calculated by applying the software Winnolin 8.3 in a non-compartmental model, and the results were shown in Table 7 and Table 8 below. Table 7 Average Pharmacokinetic Parameters after Single Subcutaneous Administration to Mice

db/db mice = assay: Pharmacodynamic effects in db/db mice, single subcutaneous administration (blood glucose); assay type: in vivo; details: single s.c. 10 nmol/kg
Outline: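 Male db/db mice aged 8-9 weeks, fed ad libitum, were grouped by initial glucose and body weight (n=6) and dosed once subcutaneously. Random blood glucose from tail tip was tracked over 0 to 120 hours against vehicle. Hypoglycemic duration is the longest time with a significant difference from vehicle (T-test, p<0.05).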

human GLP-1R = human GLP-1R (Homo sapiens, UniProt P43220); assay: In vitro binding activity to human GLP-1 receptor ([125I]GLP-1 displacement, crude cell membranes); set-up: expressed in transfected cells; details: ratio of the Ki value of the endogenous ligand to the Ki value of the test compound; larger ratio = stronger binding
Sequence of human GLP-1R (P43220 24-463): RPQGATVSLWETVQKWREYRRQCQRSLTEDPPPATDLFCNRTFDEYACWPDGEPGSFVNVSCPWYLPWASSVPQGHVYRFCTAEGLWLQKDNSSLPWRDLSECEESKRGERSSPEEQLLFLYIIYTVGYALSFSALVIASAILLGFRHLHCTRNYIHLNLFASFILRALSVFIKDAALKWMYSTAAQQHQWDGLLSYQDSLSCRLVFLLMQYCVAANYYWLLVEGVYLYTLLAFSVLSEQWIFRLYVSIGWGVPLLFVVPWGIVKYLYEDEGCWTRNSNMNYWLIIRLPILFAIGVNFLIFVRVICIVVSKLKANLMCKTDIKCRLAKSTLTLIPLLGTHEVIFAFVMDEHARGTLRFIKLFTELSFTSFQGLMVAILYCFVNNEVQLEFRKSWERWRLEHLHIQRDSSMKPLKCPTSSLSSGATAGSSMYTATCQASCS

For `CC[C@H](C)[C@H](NC(=O)C(C)(C)NC(=O)[C@H](Cc1ccc(O)cc1)NC(=O)[C@H](CC(=O)O)NC(=O)[C@H](CO)NC(=O)[C@@H](NC(=O)C(C)(Cc1ccccc1)NC(=O)[C@@H](NC(=O)CNC(=O)[C@H](CCC(=O)O)NC(=O)C(C)(C)NC(=O)[C@@H](N)Cc1ccc(O)cc1)[C@@H](C)O)[C@@H](C)O)C(=O)NC(C)(C)C(=O)N[C@@H](CC(C)C)C(=O)N[C@@H](CC(=O)O)C(=O)N[C@@H](CCCCN)C(=O)N[C@@H](CCC(N)=O)C(=O)N[C@@H](C)C(=O)N[C@@H](CCC(N)=O)C(=O)N[C@@H](C)C(=O)N[C@@H](CCC(=O)O)C(=O)N[C@@H](Cc1ccccc1)C(=O)N[C@H](C(=O)N[C@@H](CCCCN)C(=O)N[C@@H](Cc1c[nH]c2ccccc12)C(=O)N[C@@H](CC(C)C)C(=O)N[C@@H](CC(C)C)C(=O)N[C@@H](CCCCNC(=O)COCCOCCNC(=O)COCCOCCNC(=O)COCCOCCNC(=O)CC[C@H](NC(=O)CCCCCCCCCCCCCCCCCCCCC(=O)O)C(=O)O)C(=O)NCC(=O)NCC(=O)N1CCC[C@H]1C(=O)N[C@@H](CO)C(=O)N[C@@H](CO)C(=O)NCC(=O)N[C@@H](C)C(=O)N1CCC[C@H]1C(=O)N1CCC[C@H]1C(=O)N1CCC[C@H]1C(=O)N[C@@H](CO)C(=O)N[C@@H](CCCCN)C(N)=O)C(C)C` (some centres unmarked) [Compound P020], the “GIPR Ki ratio” value (human GIP Receptor) was 0.05, the AUC(0-inf) ([1]; iv) was 17400 ng·h/mL and the AUC(0-t) ([1]; iv) was 16300 ng·h/mL. The C0 ([1]; iv) was 1820 ng/mL, the half-life ([1]; iv) was 16.7 h and the MRT ([1]; iv, MRT(0-t)) was 16.8 h. For the same compound, the MRT ([1]; iv, MRT(0-∞)) was 21.8 h, the AUC(0-inf) ([1]; sc) was 21100 ng·h/mL and the AUC(0-t) ([1]; sc) was 19000 ng·h/mL. The Cmax ([1]; sc) was 836 ng/mL, the Tmax ([1]; sc) was 4.25 h and the half-life ([1]; sc) was 19.9 h. For the same compound, the MRT ([1]; sc, MRT(0-t)) was 21.8 h, the MRT ([1]; sc, MRT(0-∞)) was 29.4 h and the “inhibition of the blood glucose AUC, times of that of Tirzepatide” value (db/db mice) was 2.0 times. The “Hypoglycemic Duration” value (db/db mice; Group 2, longest time with p<0.05 vs. vehicle) was 104 h and the “GLP-1R Ki ratio” value (human GLP-1R) was 1.36.
